According to patent US20250002463A1, “NEW SALT FORMS OF AMILORIDE AND ITS DERIVATIVES FOR PHARMACEUTICAL USE” (PSOMRI Holding AB, priority 2021, published 2025):

Tests used:
[1] = Physical stability under Accelerated Aging Conditions (AAC, 40° C./75% RH, 2 days), HT-XRPD; conditions: for Physically stable after AAC: Example 1; for Physically stable after AAC / physical stability upon exposure to AAC: 40° C./75% RH for 2 days; for Physical Stability: AAC 40° C./75% RH, 2 days, re-analyzed by HT-XRPD; for physical stability upon exposure to AAC: Example 2
Protocol: The solids were separated from the liquid phases by centrifugation, dried overnight under vacuum at 50° C. and analyzed by HT-XRPD. Solvents from the remaining mother liquors and solutions were evaporated under ambient conditions (evaporative crystallization experiments) and the residual solids were analyzed by HT-XRPD.
Slurries of the amorphous solids (GEN9 and GEN16, respectively) were prepared in 15 solvents at room temperature. The suspensions were subjected to a temperature profile, which comprised of three heating and cooling cycles. At the end of the temperature profile, the solids were isolated by centrifugation and dried at ambient conditions and under vacuum at 50° C. Upon completion of all crystallization experiments, all solids were analyzed by HT-XRPD.

[2] = Polymorphism: solid forms found in salt screen by HT-XRPD; assay type: physicochemical; conditions: DME, THF; for Polymorphism: Example 1 salt screen in MeOH; for salt polymorphs found from all three crystallization solvents: Example 2, MeOH
Protocol: (§1) The precipitated solids were analyzed by high throughput X-ray powder diffractometry (HT XRPD). Liquid phases (both solutions and mother liquors) were evaporated at ambient conditions and the residual solids were analyzed by HT XRPD.
The salt screen experiments were carried out in methanol (MeOH), 1,2-dimethoxyethane (DME) and tetrahydrofuran (THF).

[3] = Crystallinity of salt forms by HT-XRPD; assay type: physicochemical; conditions: salt screen solid forms
Protocol: as §1
XRPD patterns were obtained using the Ardena T2 high-throughput XRPD set-up. The plates were mounted on a Bruker General Area Detector Diffraction System (GADDS) equipped with a VÅNTEC-500 gas area detector corrected for intensity and geometric variations. The calibration of the measurement accuracy (peaks position) was performed using NIST SRM1976 standard (Corundum).
No background subtraction or curve smoothing was applied to the XRPD patterns.

## CC(=O)O.NC(=NC(=O)c1nc(Cl)c(N)nc1N)NCc1ccccc1 [ACA2]
[1]
  Physically stable after AAC: physically stable and Yes
[2]
  Polymorphism: Yes

## NC(=NC(=O)c1nc(Cl)c(N)nc1N)NCc1ccccc1.O=C(O)c1ccccc1 [BNZ3]
[1]
  Physically stable after AAC: physically stable and Yes
[2]
  Polymorphism: Yes

## Cl.N/C(=N\C(=O)c1nc(Cl)c(N)nc1N)NCc1ccccc1 [Benzamil HCl SM1, reference compound]
[1]
  Physically stable after AAC: No
[2]
  Polymorphism: Yes

## NC(=NC(=O)c1nc(Cl)c(N)nc1N)NCc1ccccc1.O=S(=O)(O)c1cccc2c(S(=O)(=O)O)cccc12 [NDS1]
[3]
  Crystallinity: Good
[1]
  Physical Stability: Stable
  physical stability upon exposure to AAC: physically stable
[2]
  salt polymorphs found from all three crystallization solvents: only one salt polymorph

## NC(=NC(=O)c1nc(Cl)c(N)nc1N)NCc1ccccc1.O=C(O)c1cccnc1 [NIC1]
[3]
  Crystallinity: Good
[1]
  Physical Stability: Stable
  physical stability upon exposure to AAC: physically stable
[2]
  salt polymorphs found from all three crystallization solvents: only one salt polymorph

## NC(=NC(=O)c1nc(Cl)c(N)nc1N)NCc1ccccc1.O=C(O)c1cc2ccccc2c(Cc2c(O)c(C(=O)O)cc3ccccc23)c1O [PAM1]
[3]
  Crystallinity: Obtained as mixture
[1]
  Physical Stability: Stable
  physical stability upon exposure to AAC: physically stable

## NC(=NC(=O)c1nc(Cl)c(N)nc1N)NCc1ccccc1.O=C(O)c1cc2ccccc2c(Cc2c(O)c(C(=O)O)cc3ccccc23)c1O [PAM2]
[3]
  Crystallinity: Poor
[1]
  Physical Stability: Stable
  physical stability upon exposure to AAC: physically stable

## CC(C)(C)C(=O)O.NC(=NC(=O)c1nc(Cl)c(N)nc1N)NCc1ccccc1 [PIV1]
[3]
  Crystallinity: Good
[1]
  Physical Stability: Stable
  physical stability upon exposure to AAC: physically stable
[2]
  salt polymorphs found from all three crystallization solvents: only one salt polymorph

## CCC(=O)O.NC(=NC(=O)c1nc(Cl)c(N)nc1N)NCc1ccccc1 [PRO1]
[3]
  Crystallinity: Good
[1]
  Physical Stability: Unstable

## CCC(=O)O.NC(=NC(=O)c1nc(Cl)c(N)nc1N)NCc1ccccc1 [PRO3]
[3]
  Crystallinity: Moderate
[1]
  Physical Stability: Unstable

## CCC(=O)O.NC(=NC(=O)c1nc(Cl)c(N)nc1N)NCc1ccccc1 [PRO4]
[3]
  Crystallinity: Obtained as mixture
[1]
  Physical Stability: Unstable

## NC(=NC(=O)c1nc(Cl)c(N)nc1N)NCc1ccccc1.O=C(O)c1ccccc1O [SAL1]
[3]
  Crystallinity: Good
[1]
  Physical Stability: Stable
  physical stability upon exposure to AAC: physically stable

## NC(=NC(=O)c1nc(Cl)c(N)nc1N)NCc1ccccc1.O=C(O)c1ccccc1O [SAL3]
[3]
  Crystallinity: Moderate
[1]
  Physical Stability: Unstable-

## CCCCCCCCCCCCCCCCCC(=O)O.NC(=NC(=O)c1nc(Cl)c(N)nc1N)NCc1ccccc1 [STE1]
[3]
  Crystallinity: Obtained as mixture
[1]
  Physical Stability: Stable
  physical stability upon exposure to AAC: physically stable

## CCCCCCCCCCCCCCCCCC(=O)O.NC(=NC(=O)c1nc(Cl)c(N)nc1N)NCc1ccccc1 [STE2]
[3]
  Crystallinity: Poor
[1]
  Physical Stability: Stable
  physical stability upon exposure to AAC: physically stable

## NC(=NC(=O)c1nc(Cl)c(N)nc1N)NCc1ccccc1.NC(=NC(=O)c1nc(Cl)c(N)nc1N)NCc1ccccc1.O=S(=O)(O)O [SUL1]
[1]
  Physically stable after AAC: physically stable and Yes
[2]
  Polymorphism: Yes

## N=C(NCc1ccccc1)NC(=O)c1nc(Cl)c(N)nc1N.O=C(O)C(O)C(O)C(=O)O [TAR1]
[1]
  Physically stable after AAC: physically stable
[1]; listed as TAR1 pc
  Physically stable after AAC: Yes
[2]
  Polymorphism: Unclear

## CCCCC(=O)O.NC(=NC(=O)c1nc(Cl)c(N)nc1N)NCc1ccccc1 [VAL1]
[3]
  Crystallinity: Good
[1]
  Physical Stability: Stable
  physical stability upon exposure to AAC: physically stable

## PAM3
[3]
  Crystallinity: Poor
[1]
  Physical Stability: Unstable
